Measurements: US20150299648A1, “IMPROVED CULTIVATION MEDIA AND PROCESS FOR IMPROVED PROTEIN PRODUCTION BY PICHIA STRAINS” (priority 2012, published 2015)
“Also recorded” adds a separate entry of the source.

Columns and labels:
[1] = tested on: P. pastoris strain (YGLY27893) which produces an antibody Fc-fragment; test: Effect of maltitol with or without sorbitol on cell robustness; assay type: cell-based, Pichia pastoris; details: BSGY medium with maltitol 50 g/L
Experimental: Using a P. pastoris strain (YGLY27893) which produces an antibody Fc-fragment, the osmoprotective effect of combining sorbitol and maltitol was tested as follows: sorbitol(−) maltitol(−); sorbito(+) maltitol(−); […] maltito(+). The concentrations of sorbitol and maltitol were 18 g/L and 50 g/L respectivetly. (Note: Sorbitol(+) maltito(−) is identical to BSGY medium).
The cell growth was expressed as [Cell (t)]/[Cell (0)]×100(%), here, [Cell (t)] is the wet cell weight at t (h) of induction and [Cell (0)] is the wet cell weight at 0 (h) of induction, because the cell density at the beginning of induction in each case was different due to absence or presence of sorbitol as a fermentable sugar. The cell was heavily lysed around 80 h of induction in BSGY medium without maltitol, whereas the cell was continuously grown for 150 h of induction in BSGY medium with maltitol (FIG. 4). I re-draw the FIG. 4 as shown in the last page (p 47 after FIG. 5).

[2] = Osmolality of sugar and sugar alcohol solutions (osmometer); assay type: physicochemical; details: 500 mM in water
Experimental: The sugar and sugar alcohol solutions used as osmoprotectant supplements were prepared at 500 mM in water and their osmolalities were measured using Osmometer (Multi-somotte, Model 2430, Precision Systems Inc, MA, USA). The osmolality of solution was directly proportional to the concentration of component in solution. For instance there was a linear relationship between sorbitol concentration (mM) and osmolality of the solution (mOsm/kg) as shown in FIG. 1A. The osmolalities of maltitol, sorbitol, glycerol, and glucose at 500 mM in water were 590±4, 544±3, 541±3, and 568±0 mOsm/kg respectively (FIG. 1B). The osmolaties of sorbose, mellibiose, ribose, quinic acid and myo-inositol at 500 Mm in water were (480±5), (500±5), (470±5), (480±5) AND (510±10), respectively.

[3] = tested on: P. pastoris YGLY21058 strain producing glycosylated insulin precursor (GIP); test: Screening of sugars and sugar alcohols as osmoprotectants in fed-batch cultivation; assay type: cell-based, Pichia pastoris
Experimental: The P. pastoris YGLY21058 strain was cultivated in 1 L glass bioreactors (DASGIP, Germany). For fermentation in 1 L bioreactor, a vial (1 mL) of RCB (Research Cell Bank) was inoculated into 200 mL of Seed medium in 1 L-baffled flask. The culture incubated at 24° C., while shaking on an orbital shaker at 180 rpm for 48±4 h. The bioreactor was inoculated with a 10% volumetric ratio of seed to initial BSGY medium. Cultivation conditions were following: temperature set at 24±0.5° C., pH controlled at 6.5±0.1 with 30% ammonium hydroxide, dissolved oxygen was maintained at 20% of saturation by cascading agitation rate on the addition of pure oxygen to the fixed airflow rate of 0.7 vvm. After depletion of the initial glycerol (4%), a 50% glycerol solution containing 12.5 mL/L of PTM1 salts (6.5 g FeSO4.7H2O, 2.0 g ZnCl2, 0.6 g CuSO4.5H2O, 3.0 g MnSO4.7H2O, 0.5 g CoCl2.6H2O, 0.2 g NaMoO4.2H2O, 0.2 g biotin, 80 mg NaI, 20 mg H3BO4 per L) was fed constantly at an initial rate of 0.08 h^−1 for 8 h. Induction was initiated after a 30 min starvation phase when methanol was fed. Methanol was fed constantly starting at 1.33 g/L/h under methanol limited condition. Agitation speed was changed from cascade mode with agitation speed and pure oxygen.
For comparisons, each sugar or sugar alcohol was added at 50 g/L in initial batch medium of BSGY. In case of control without sugar supplementation (BSGY medium only), glycosylated insulin precursor (GIP) was detectable at 58 h of induction, but not detected at 80 h of induction due to most likely proteolytic degradation caused by heavy cell lysis (Lanes 1 and 2 of FIG. 2 A).

[4] = tested on: P. pastoris YGLY 21058 strain; test: Fermentability of sorbitol and maltitol determined by HPLC; assay type: cell-based, Pichia pastoris; details: BSGY; maltitol 50 g/L; methanol induction phase
Experimental: The P. pastoris YGLY 21058 strain was cultivated in 1 L bioreactor and 50 g/L of maltitol was mixed in BSGY medium. The samples were taken at the beginning of fermentation, at the end of glycerol fed-batch before adding maltitol, and two different time-points in methanol induction phase, as shown in FIG. 3. The supernatant was separated by the centrifugation at 13,000 rpm for 1 minutes using micro-centrifuge. The samples properly diluted with distilled water were filtered using 0.2 μm-filter and the residual concentrations of sorbitol and maltitol were determined by HPLC using AMINEX HPX-87H column. The residence times (RTs) for sorbitol and maltitol were 11.5 and 9.3 min respectively. The data were shown in FIG. 3 as two independent runs of cultivation.

[5] = tested on: P. pastrois strain yGLY21058; test: Fermentability of sugars or sugar alcohols on M agar plate; assay type: cell-based, Pichia pastoris; details: 6 days at 30° C.
Experimental: The 1 mL of RCB (Research Cell Bank in 20% of glycerol) for P. pastrois strain yGLY21058 producing glycosylated insulin precursor (GIP) was inoculated in 200 mL of Seed medium (4% glycerol, 1% yeast extract, 2% soytone, 1.34% YNB without amino acids, 0.23% K2HPO4, 1.19% KH2PO4, 8 μg/L biotin) and cultivated for 48 h at 24° C. The cell pellet was harvested by centrifugation at 4,000 rpm for 10 min and re-suspended with PBS buffer (pH 7.4) to wash the cell twice. The 0.1 mL of cell suspension with wash buffer was transferred and spread onto the minimal agar plate containing each sugar or sugar alcohol (1% w/v), which is listed in Table 1.
YPD (1% yeast extract, 2% yeast peptone, and 1% glucose) agar plate was used for the positive control and a minimal agar plate without carbon sources (M) was used for negative control. Growth of Pichia pastoris on M agar plate containing single carbon source was categorized as no (−), slow (+), moderate (++), and fast (+++) colony formation for 6 days in Table 1.

OC[C@@H](O)[C@@H](O[C@H]1O[C@H](CO)[C@@H](O)[C@H](O)[C@H]1O)[C@H](O)[C@@H](O)CO [Maltitol, 4-O-α-glucopyranosyl-D-sorbitol]
Time of continuous cell growth in induction [1]: 150 h | Osmolality of solution [2]: 590±4 mOsm/kg | Intact insulin precursor produced ([3]; 2% maltitol, 83 h of post-induction): intact protein was produced | Index of cell lysis (double stranded DNA released into culture medium) ([3]; 50 g/L in initial batch BSGY, 80 h of induction): < 1 mg DNA/L | Intact GIP molecule after 80 h-induction (SDS-PAGE) ([3]; 50 g/L in initial batch medium of BSGY): intact GIP molecule was maintained | Intact GIP produced ([3]; 80 h of induction): 100 mg/L | Robustness of Pichia production strains ([3]; methanol induction phase of cultivation): significantly improved the robustness | Volumetric productivity of GIP/insulin relative to control ([3]; vs control without supplementation): 2 fold | Consumption / fermentability in fed-batch fermentation (residual concentration by HPLC) [4]: not consumed; also recorded: non-fermentable | Fermentability category from colony formation on the plate ([5]; minimal agar plate): strict non-fermentable substrates | Growth on M agar ([5]; single carbon source 1% w/v): −
